Tests used:
MDA-MB-231 cells = experiment: In-vitro cell viability test (CellTiter-Glo, 7 days); format: cell-based; settings: Homo sapiens, 168 h, 7 days incubation
Protocol: RPMI 1640 medium (Invitrogen-22400089); fetal bovine serum (Invitrogen-10099141); Trypsin, 0.05% (1×) with EDTA 4Na (Invitrogen-25300062); luminescent cell viability assay kit (Promega-G7573); Dulbecco's phosphate buffered saline (HyClone-SH30028.01B); and 384-well plate (Corning-6007680). Envision Multi-label Analyzer.
1. 30 μL of MDA-MB-231 cell suspension, which contained 250 MDA-MB-231 cells, was added into the wells of a 384-microwell plate.
2. 20 μL of a test compound (the test compounds were formulated at a high concentration of 10 μM, the test compounds were subjected to a 5-fold gradient dilution, and each compound was diluted to 10 concentration gradients) was added, and then the cell plate was put back into a carbon dioxide incubator to be incubated for 7 days.
3. The cell plate was kept flat at room temperature for 30 minutes.
4. 20 μL of a Promega CellTiter-Glo reagent was added into each well of the cell plate.
5. After 10 minutes, the Envision Multi-label Analyzer was used for data reading.

[1] = tested on: MDA-MB-231 triple-negative breast cancer CDX; experiment: In-vivo drug efficacy study 2, MDA-MB-231 CDX model; parameters: species or system BALB/c nude mice
Protocol: (§1) The in-vivo drug efficacy experiments were carried out in BALB/c nude mice implanted subcutaneously with human tumor cell line-derived xenograft (CDX) derived from patients suffering from MDA-MB-231 triple-negative breast cancer.
(§2) BALB/c nude mice, female, 6 to 8 weeks old, weighing about 18 to 22 g, were kept in a special pathogen-free environment and in separated ventilated cages (3 mice per cage). All cages, bedding and water were disinfected before use. All animals had free access to standard certified commercial laboratory diets. A total of 48 mice purchased from Shanghai BK Laboratory Animal Co., LTD were used for the study. Each mouse was inoculated subcutaneously in the right flank with tumor cells (10×10^6 cells in 0.2 mL of a phosphate buffer) for tumor growth. The administration was initiated when the average tumor volume reached about 110 cubic millimeters. The test compounds were orally administered daily at a dose of 30 mg/kg. Tumor volumes were measured with a two-dimensional caliper every 3 days. The volume was measured in cubic millimeters and calculated by the following formula: V=0.5 a×b^2, where a and b were the long and short diameters of a tumor, respectively. Anti-tumor efficacy was determined by dividing the average increase in tumor volume of animals treated with a compound by the average increase in tumor volume of untreated animals.

[2] = tested on: MDA-MB-231 triple-negative breast cancer CDX; experiment: In-vivo drug efficacy study 1, MDA-MB-231 CDX model; parameters: species or system BALB/c nude mice
Protocol: as §1
as §2, with “147” for “110”

CN[C@@H](C)C(=O)N[C@H](C(=O)N1CCC[C@H]1Cn1cc(C(C)=O)c2cc(Cl)ccc21)C1CCCCC1 [Example 2]
IC50 (MDA-MB-231 cells): 54.8 nM
Tumor volume ([1]; Day 0, 30 mg/kg oral daily): 110 mm^3
Tumor volume ([1]; Day 5, 30 mg/kg oral daily): 111 mm^3
Tumor volume ([1]; Day 12, 30 mg/kg oral daily): 86 mm^3
Tumor volume ([1]; Day 20, 30 mg/kg oral daily): 177 mm^3
Tumor volume ([2]; Day 0, 30 mg/kg oral daily): 147 mm^3
Tumor volume ([2]; Day 6, 30 mg/kg oral daily): 214 mm^3
Tumor volume ([2]; Day 13, 30 mg/kg oral daily): 282 mm^3
Tumor volume ([2]; Day 20, 30 mg/kg oral daily): 810 mm^3

Source: patent US11358950B2, “SMAC mimetics used as IAP inhibitors and use thereof” (CHIA TAI TIANQING PHARMACEUTICAL GROUP CO., LTD., priority 2017, dated 2022)
